Test system: MMP-1, MMP-2, MMP-9, MMP-13, PLAT, PAI-1 mRNA
Assay: qRT-PCR gene expression in sheep TM and ciliary processes after tPA (Examples 6, 7)
Assay type: in vivo
From the text: Methods. Tissue Collection and Isolation of RNA. After animals were euthanized, eyes were immediately enucleated. Eyes were then opened anterior to the equator using a razor blade. The lens was removed from the anterior part, and the tissue was immersed in RNA stabilizing agent (RNAlater; Ambion, Carlsbad, Calif.) and placed […] for transportation to the United States. Upon arrival in the United States, TM and ciliary processes (CP) were dissected on ice in the presence of RNA stabilizing agent as described previously. Dissected tissue was homogenized, and total RNA was extracted using TRIzol reagent (Gibco, Carlsbad, Calif.). Briefly, the tissue was homogenized in TRIzol, and chloroform was added to separate proteins from RNA. After centrifugation, the RNA-containing supernatant was aspirated. The RNA was precipitated with isopropanol, washed with 75% ethanol, treated with DNase, and column purified using a commercial kit (RNAeasy Mini Kit; Qiagen, Valencia, Calif.) in accordance with the manufacturer's instructions. RNA concentrations were determined with a spectrophotometer (Nanodrop; Thermo Scientific, Wilmington, Del.) and the 260:280-nm absorbance ratio was calculated to determine RNA purity.
Quantitative Real-Time PCR (qRT-PCR) The RNA samples were reverse transcribed with random hexamers to cDNA using a reverse transcription kit (Quantitect; Qiagen) in accordance with the manufacturer's instructions. Quantitative RT-PCR was performed using a commercial kit (SYBR Green RT-PCR Reagents Kit; Applied Biosystems, Carlsbad, Calif.) in an ABI PRISM 7900HT sequence detector (Applied Biosystems). […] Plasminogen activator inhibitor 1 (PAI-1) mRNA expression was measured in both TM and ciliary processes tissues. Relative quantification of gene expression was performed using the standard curve method. […] The DCt was calculated as the difference in Ct values derived from the target gene and the 18S gene. The DDCt was calculated as DCt of the normalized assayed genes in the treated samples minus DCt of normalized assayed genes in the naïve control samples. […]

## tissue plasminogen activator [tPA]
Sheep TM (FIG. 7)
  PLAT expression: down-regulates
  expression of MMP1 and MMP9: up-regulates
Sheep trabecular meshwork and ciliary processes
  expression of MMP1, MMP2, MMP9, MMP13 and PAI-1: up-regulates
